# Reference: US20230406864A1, “7-AZOLE SUBSTITUTED 2-AMINOQUINAZOLINE INHIBITORS OF HPK1” (MERCK SHARP & DOHME LLC, priority 2020, published 2023)
# Molecular target: T1, Human HPK1, catalytic domain (Homo sapiens, UniProt Q92918)
# T1 construct: purchased Cama (so in the source)
# T1 sequence (Q92918 1-346): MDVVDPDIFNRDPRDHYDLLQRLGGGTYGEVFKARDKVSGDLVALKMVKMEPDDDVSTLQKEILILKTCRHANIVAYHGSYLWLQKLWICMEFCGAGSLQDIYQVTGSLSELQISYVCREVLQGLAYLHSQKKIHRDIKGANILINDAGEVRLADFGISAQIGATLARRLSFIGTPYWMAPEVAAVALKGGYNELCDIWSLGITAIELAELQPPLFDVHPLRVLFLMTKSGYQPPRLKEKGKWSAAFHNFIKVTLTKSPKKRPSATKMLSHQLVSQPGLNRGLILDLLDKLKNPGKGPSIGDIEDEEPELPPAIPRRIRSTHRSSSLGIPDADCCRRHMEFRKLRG
# Experiment: HPK1-SLP76 TR-FRET assay
# Assay type: biochemical
# Conditions: HPK1 kinase domain 0.075 nM; full length SLP-76 10 nM; ATP 10 μM; 30 min preincubation; 60 min reaction; room temperature
row,SMILES,IC50
1,"Cc1c(-c2cc3nc(Nc4cnn(C5CCN(C)C5=O)c4)ncc3c(N)c2F)cnc2c1NCCO2 (single isomer, unassigned) [Example 2-21, (S or R)-3-(4-{[5-amino-6-fluoro-7-(8-methyl-2,3-dihydro-1H-pyrido[2,3-b][1,4]oxazin-7-yl)quinazolin-2-yl]amino}-1H-pyrazol-1-yl)-1-methylpyrrolidin-2-one]",0.35 nM
2,"Cc1c(-c2ccc3cnc(Nc4cnn(C5COC5)c4)nc3c2)cnc2c1NCCO2 [Example 1-1, 7-(8-methyl-2,3-dihydro-1H-pyrido[2,3-b][1,4]oxazin-7-yl)-N-[1-(oxetan-3-yl)-1H-pyrazol-4-yl]quinazolin-2-amine]",1.2 nM
3,"CCC(=O)N1CC(n2cc(Nc3ncc4ccc(-c5cnc6c(c5C)NCCO6)cc4n3)cn2)C1 [Example 1-3, 1-[3-(4-{[7-(8-methyl-2,3-dihydro-1H-pyrido[2,3-b][1,4]oxazin-7-yl)quinazolin-2-yl]amino}-1H-pyrazol-1-yl)azetidin-1-yl]propan-1-one]",0.26 nM
4,"Cc1c(-c2ccc3cnc(Nc4cc5n(n4)CC(=O)N(C)CC54CC4)nc3c2)cnc2c1NCCO2 [Example 1-4, 6′-methyl-2′-{[7-(8-methyl-2,3-dihydro-1H-pyrido[2,3-b][1,4]oxazin-7-yl)quinazolin-2-yl]amino}-5′,6′-dihydrospiro[cyclopropane-1,4′-pyrazolo[1,5-d][1,4]diazepin]-7′(8′H)-one]",5.3 nM
5,"Cc1c(-c2ccc3cnc(Nc4cnn(C)c4)nc3c2)cnc2c1NCCO2 [Example 1-5, 7-(8-methyl-2,3-dihydro-1H-pyrido[2,3-b][1,4]oxazin-7-yl)-N-(1-methyl-1H-pyrazol-4-yl)quinazolin-2-amine]",0.71 nM
6,"Cc1c(-c2ccc3cnc(Nc4cc5n(n4)CCN(C(C)C)C(=O)C5)nc3c2)cnc2c1NCCO2 [Example 1-7, 2-{[7-(8-methyl-2,3-dihydro-1H-pyrido[2,3-b][1,4]oxazin-7-yl)quinazolin-2-yl]amino}-6-(propan-2-yl)-7,8-dihydro-4H-pyrazolo[1,5-d][1,4]diazepin-5(6H)-one]",0.34 nM
7,"Cc1c(-c2ccc3cnc(Nc4cc5n(n4)CCN(CC(C)(C)O)C(=O)C5)nc3c2)cnc2c1NCCO2 [Example 1-8, 6-(2-hydroxy-2-methylpropyl)-2-((7-(8-methyl-2,3-dihydro-1H-pyrido[2,3-b][1,4]oxazin-7-yl)quinazolin-2-yl)amino)-7,8-dihydro-4H-pyrazolo[1,5-d][1,4]diazepin-5(6H)-one]",0.675 nM
8,"CCC(=O)N1CC(n2cc(Nc3ncc4c(N)c(F)c(-c5cnc6c(c5C)NCCO6)cc4n3)cn2)C1 [Example 2-1, 1-[3-(4-{[5-amino-6-fluoro-7-(8-methyl-2,3-dihydro-1H-pyrido[2,3-b][1,4]oxazin-7-yl)quinazolin-2-yl]amino}-1H-pyrazol-1-yl)azetidin-1-yl]propan-1-one]",0.42 nM
9,"Cc1c(-c2cc3nc(Nc4cnn(C5CC6(CNC6)C5)c4)ncc3c(N)c2F)cnc2c1NCCO2 [Example 2-4, N~2~-[1-(2-azaspiro[3.3]heptan-6-yl)-1H-pyrazol-4-yl]-6-fluoro-7-(8-methyl-2,3-dihydro-1H-pyrido[2,3-b][1,4]oxazin-7-yl)quinazoline-2,5-diamine]",0.47 nM
10,"Cc1c(-c2cc3nc(Nc4cnn(C5CNC5)c4)ncc3c(N)c2F)cnc2c1NCCO2 [Example 2-5, N~2~-[1-(azetidin-3-yl)-1H-pyrazol-4-yl]-6-fluoro-7-(8-methyl-2,3-dihydro-1H-pyrido[2,3-b][1,4]oxazin-7-yl)quinazoline-2,5-diamine]",0.29 nM
11,"Cc1c(-c2cc3nc(Nc4cnn(CC(F)(F)F)c4)ncc3c(N)c2F)cnc2c1NCCO2 [Example 2-7, 6-fluoro-7-(8-methyl-2,3-dihydro-1H-pyrido[2,3-b][1,4]oxazin-7-yl)-N~2~-[1-(2,2,2-trifluoroethyl)-1H-pyrazol-4-yl]quinazoline-2,5-diamine]",0.26 nM
12,"Cc1c(-c2cc3nc(Nc4cnn(Cc5ccccc5)c4)ncc3c(N)c2F)cnc2c1NCCO2 [Example 2-12, N~2~-(1-benzyl-1H-pyrazol-4-yl)-6-fluoro-7-(8-methyl-2,3-dihydro-1H-pyrido[2,3-b][1,4]oxazin-7-yl)quinazoline-2,5-diamine]",2.8 nM
13,"Cc1c(-c2cc3nc(Nc4cnn(CC(C)C)c4)ncc3c(N)c2F)cnc2c1NCCO2 [Example 2-13, 6-fluoro-7-(8-methyl-2,3-dihydro-1H-pyrido[2,3-b][1,4]oxazin-7-yl)-N~2~-[1-(2-methylpropyl)-1H-pyrazol-4-yl]quinazoline-2,5-diamine]",0.77 nM
14,"CCn1ncc(Nc2ncc3c(N)c(F)c(-c4cnc5c(c4C)NCCO5)cc3n2)c1C [Example 2-16, N~2~-(1-ethyl-5-methyl-1H-pyrazol-4-yl)-6-fluoro-7-(8-methyl-2,3-dihydro-1H-pyrido[2,3-b][1,4]oxazin-7-yl)quinazoline-2,5-diamine]",0.51 nM
15,"Cc1cc(Nc2ncc3c(N)c(F)c(-c4cnc5c(c4C)NCCO5)cc3n2)sn1 [Example 2-17, 6-fluoro-7-(8-methyl-2,3-dihydro-1H-pyrido[2,3-b][1,4]oxazin-7-yl)-N~2~-(3-methyl-1,2-thiazol-5-yl)quinazoline-2,5-diamine]",0.38 nM
16,"Cc1c(-c2cc3nc(Nc4cnn(CC(C)(C)O)c4Cl)ncc3c(N)c2F)cnc2c1NCCO2 [Example 2-18, 1-(4-{[5-amino-6-fluoro-7-(8-methyl-2,3-dihydro-1H-pyrido[2,3-b][1,4]oxazin-7-yl)quinazolin-2-yl]amino}-5-chloro-1H-pyrazol-1-yl)-2-methypropan-2-ol]",2 nM

# Now those with a lower IC50, led by results:
row,IC50,SMILES
1,0.15 nM,"Cc1c(-c2cc3nc(Nc4cnn(C5CCN(C)C5=O)c4)ncc3c(N)c2F)cnc2c1NCCO2 (single isomer, unassigned) [Example 2-19, (S or R)-3-(4-{[5-amino-6-fluoro-7-(8-methyl-2,3-dihydro-1H-pyrido[2,3-b][1,4]oxazin-7-yl)quinazolin-2-yl]amino}-1H-pyrazol-1-yl)-1-methylpyrrolidin-2-one]"
2,0.22 nM,"Cc1c(-c2ccc3cnc(Nc4cnn(C5CC6(C5)CN(C5(C)COC5)C6)c4)nc3c2)cnc2c1NCCO2 [Example 1-2, 7-(8-methyl-2,3-dihydro-1H-pyrido[2,3-b][1,4]oxazin-7-yl)-N-{1-[2-(3-methyloxetan-3-yl)-2-azaspiro[3.3]heptan-6-yl]-1H-pyrazol-4-yl}quinazolin-2-amine]"
3,0.14 nM,"Cc1c(-c2cc3nc(Nc4cnn(C5CC6(C5)CN(C5(C)COC5)C6)c4)ncc3c(N)c2F)cnc2c1NCCO2 [Example 2-2, 6-fluoro-7-(8-methyl-2,3-dihydro-1H-pyrido[2,3-b][1,4]oxazin-7-yl)-N~2~-{1-[2-(3-methyloxetan-3-yl)-2-azaspiro[3.3]heptan-6-yl]-1H-pyrazol-4-yl}quinazoline-2,5-diamine]"
4,0.12 nM,"Cc1c(-c2cc3nc(Nc4cnn(C5CCN(C6(C)COC6)CC5)c4)ncc3c(N)c2F)cnc2c1NCCO2 [Example 2-3, 6-fluoro-7-(8-methyl-2,3-dihydro-1H-pyrido[2,3-b][1,4]oxazin-7-yl)-N~2~-{1-[1-(3-methyloxetan-3-yl)piperidin-4-yl]-1H-pyrazol-4-yl}quinazoline-2,5-diamine]"
5,0.14 nM,"Cc1c(-c2cc3nc(Nc4cnn(CC5CC5)c4)ncc3c(N)c2F)cnc2c1NCCO2 [Example 2-6, N~2~-[1-(cyclopropylmethyl)-1H-pyrazol-4-yl]-6-fluoro-7-(8-methyl-2,3-dihydro-1H-pyrido[2,3-b][1,4]oxazin-7-yl)quinazoline-2,5-diamine]"
6,0.088 nM,"Cc1c(-c2cc3nc(Nc4cnn(C5(C)CC5)c4)ncc3c(N)c2F)cnc2c1NCCO2 [Example 2-8, 6-fluoro-N~2~-[1-(1-methylcyclopropyl)-1H-pyrazol-4-yl]-7-(8-methyl-2,3-dihydro-1H-pyrido[2,3-b][1,4]oxazin-7-yl)quinazoline-2,5-diamine]"
7,0.14 nM,"Cc1c(-c2cc3nc(Nc4cnn(C5CC5)c4)ncc3c(N)c2F)cnc2c1NCCO2 [Example 2-9, N~2~-(1-cyclopropyl-1H-pyrazol-4-yl)-6-fluoro-7-(8-methyl-2,3-dihydro-1H-pyrido[2,3-b][1,4]oxazin-7-yl)quinazoline-2,5-diamine]"
8,0.13 nM,"Cc1c(-c2cc3nc(Nc4cnn(C)c4)ncc3c(N)c2F)cnc2c1NCCO2 [Example 2-10, 6-fluoro-7-(8-methyl-2,3-dihydro-1H-pyrido[2,3-b][1,4]oxazin-7-yl)-N~2~-(1-methyl-1H-pyrazol-4-yl)quinazoline-2,5-diamine]"
9,0.071 nM,"Cc1c(-c2cc3nc(Nc4cnn(C5CCNCC5)c4)ncc3c(N)c2F)cnc2c1NCCO2 [Example 2-11, 6-fluoro-7-(8-methyl-2,3-dihydro-1H-pyrido[2,3-b][1,4]oxazin-7-yl)-N~2~-[1-(piperidin-4-yl)-1H-pyrazol-4-yl]quinazoline-2,5-diamine]"
10,0.16 nM,"Cc1c(-c2cc3nc(Nc4cnn(C(C)C)c4)ncc3c(N)c2F)cnc2c1NCCO2 [Example 2-14, 6-fluoro-7-(8-methyl-2,3-dihydro-1H-pyrido[2,3-b][1,4]oxazin-7-yl)-N~2~-[1-(propan-2-yl)-1H-pyrazol-4-yl]quinazoline-2,5-diamine]"
11,0.22 nM,"COC(=O)C12CC(n3cc(Nc4ncc5c(N)c(F)c(-c6cnc7c(c6C)NCCO7)cc5n4)cn3)(C1)C2 [Example 2-15, methyl 3-(4-{[5-amino-6-fluoro-7-(8-methyl-2,3-dihydro-1H-pyrido[2,3-b][1,4]oxazin-7-yl)quinazolin-2-yl]amino}-1H-pyrazol-1-yl)bicyclo[1.1.1]pentane-1-carboxylate]"
